From US11059830B2, “Compounds that participate in cooperative binding and uses thereof” (Revolution Medicines, Inc., priority 2015, dated 2021)

What was measured:
[1] = target: CEP25011.4 (residues 2134-2231) (Homo sapiens (Human), UniProt P62942+Q9BV73); assay: SPR binding of CEP250 (analyte) to immobilized FKBP12-Compound 2 binary complex; details: FKBP12/Compound 2 complex binding to CEP25011.4, SPR, 1 μM compound
Description: (§1) This protocol utilizes Surface Plasmon Resonance (SPR) as a method to determine kinetics (KD, Ka, Kd) for the binding of CEP250 (analyte) to immobilized FKBP12-Compound 2 binary complex (ligand).
(§2) Compound 2 in 100% DMSO (in-house), 10×HBS-P+ buffer (GE Healthcare BR-1006-71), Assay buffer (1×HBS-P+ buffer, 1% DMSO, 1 μM Compound 2), 12×HIS tagged FKBP12 (in-house), CEP25029.2 (residues 1982-2231) and CEP25011.4 (residues 2134-2231) (in-house).
(§3) Experiments are performed at 25° C. Stock solution of 12×HIS tagged FKBP12 is diluted to 100 nM in assay buffer containing 1 μM Compound 2 (1% DMSO final). Approximately 200-400 RU of FKBP12 is immobilized on one of two flow cells of an activated NTA chip. The second flow cell is not activated as a reference for non-specific interaction of the analyte to the sensor chip. Various concentrations of CEP250 (1 nM-1 μM range), serially diluted into the same assay buffer containing 1 μM Compound 2 (1% DMSO final), are injected onto the FKBP12 surface and reference surface at a flow rate of 10 μl/min. The surface is regenerated between analyte injections with 350 mM EDTA.
(§4) The BiaEvaluation software program is used for data fitting. All data is reference subtracted against both the reference flow cell and a buffer injection. For kinetic analyses, data is locally fit to a 1:1 interaction model.

[2] = target: CEP25029.2 (residues 1982-2231) (Homo sapiens (Human), UniProt P62942+Q9BV73); assay: as above; details: FKBP12/Compound 2 complex binding to CEP25029.2, SPR, 1 μM compound
CEP25029.2 (residues 1982-2231), sequence (Q9BV73 1982-2231): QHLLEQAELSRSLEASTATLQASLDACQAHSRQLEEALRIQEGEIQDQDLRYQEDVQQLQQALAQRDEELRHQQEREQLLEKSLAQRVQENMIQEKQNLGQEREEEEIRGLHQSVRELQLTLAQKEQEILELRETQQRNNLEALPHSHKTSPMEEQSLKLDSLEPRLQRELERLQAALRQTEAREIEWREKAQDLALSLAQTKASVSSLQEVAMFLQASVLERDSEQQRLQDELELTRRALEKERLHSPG
CEP25029.2 (residues 1982-2231), sequence (P62942 whole entry, the tested form may be a part): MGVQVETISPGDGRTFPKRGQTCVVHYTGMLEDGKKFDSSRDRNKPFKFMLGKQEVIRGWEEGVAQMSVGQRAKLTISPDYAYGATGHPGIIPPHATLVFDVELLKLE
Description: as §1, §2, §3, §4

FKBP12 [3] = target: T1, FKBP12 (Homo sapiens (Human), UniProt P62942); assay: SPR binding of compound (analyte) to immobilized FKBP12 (Example 7); details: 25° C., 12×HIS tagged FKBP12 immobilized on NTA chip; read-out: SPR affinity to FKBP12: KD
T1 sequence (P62942 whole entry): as the sequence (P62942 whole entry, the tested form may be a part) above
Description: This protocol utilizes Surface Plasmon Resonance (SPR) as a method to determine kinetics (KD, Ka, Kd) for the binding of compound (analyte) to immobilized FKBP12 (ligand).
Compound in 100% DMSO (in-house), 10×HBS-P+ buffer (GE Healthcare BR-1006-71), Assay buffer (1×HBS-P+ buffer, 1% DMSO), 12×HIS tagged FKBP12 (in-house).
as §3, with “buffer” for “buffer containing 1 μM Compound 2”, “500-600” for “200-400”, “compound” for “CEP250”
as §4

FKBP12 [4] = target: T1, FKBP12; assay: AlphaLISA FKBP12 binding: inhibition of binding of biotinylated FK506 to FLAG tagged FKBP12; details: read-out: Binding affinity to FKBP12 (by displacement of FK506)
From the text: The binding of compounds of the invention to FKBP12 can be determined using the following protocol.
This protocol utilizes Perkin Elmers AlphaLISA technology platform to detect FKBP binders by measuring the inhibition of binding of biotinylated FK506 to FLAG tagged FKBP12.
10×TBST Buffer (Boston BioProducts IBB-181), Biotinylated FK506 (in-house), FLAG tagged FKBP (in-house); anti-FLAG Donor beads (Perkin Elmer AS103) and Streptavidin Acceptor beads (Perkin Elmer AL125); Compounds in DMSO (in-house), FK506.
Experimental Protocol/Description of Assay: Add 20 uL of 12.5 nM FKBP-FLAG working stock to each well of the 96-well plate. Add 1 uL of test compound (100% DMSO) to each well of the plate using the Janus MTD head and P20 tips (except control wells). Add 1 uL of DMSO to negative control wells and 1 uL of 50 uM FK506 solution to positive control wells. In the dark, add 20 uL of combined Donor/Acceptor beads to each well. Incubate in the dark for 30 minutes at room temperature. In the dark, add 10 uL of 5 nM biotinylated FK506 working stock to each well. Incubate in the dark for 60 minutes at room temperature. Protect plate from light until reading on Biotek Synergy2 Plate Reader; Alphalisa 96-well protocol (680 excitation/615 emission).

FKBP12 [5] = target: T1, FKBP12; assay: SPR kinetics of Compound 2 and Compound 6 binding to immobilized FKBP12 (Example 8); details: compound to immobilized FKBP12, 25° C.
Description: This protocol utilizes Surface Plasmon Resonance (SPR) as a method to determine kinetics (KD, Ka, Kd) for the binding of Compound 2 and Compound 6 (analyte) to immobilized FKBP12 (ligand).
Compound 2 and Compound 6 in 100% DMSO (in-house), 10×HBS-P+ buffer (GE Healthcare BR-1006-71), Assay buffer (1×HBS-P+ buffer, 1% DMSO), 12×HIS tagged FKBP12 (in-house).
as §3, with “buffer” for “buffer containing 1 μM Compound 2”, “500-600” for “200-400”, “Compound 2 or Compound 6” for “CEP250”
as §4

CEP25011.4 (residues 2134-2231), sequence (Q9BV73 2134-2231): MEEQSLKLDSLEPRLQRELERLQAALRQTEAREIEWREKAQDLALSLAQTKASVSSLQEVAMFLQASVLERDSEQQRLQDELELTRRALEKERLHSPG
CEP25011.4 (residues 2134-2231), sequence (P62942 whole entry, the tested form may be a part): as the sequence (P62942 whole entry, the tested form may be a part) above

## CC[C@H](Cc1ccccc1)[C@@H]1/C=C/C/C=C/C[C@@H](C)[C@H](O)[C@@H](C)[C@@H]2CC[C@@H](C)C(=O)C(O)(O2)C(=O)N2CCCC[C@H]2C(=O)O1 [Compound 2]
[1]
  Kd: 0.00309 s⁻¹
[1]; read-out: Ka
  kon: 571000 M⁻¹ s⁻¹
[2]
  koff: 9.25e-05 s⁻¹
[2]; read-out: Ka
  kon: 311000 M⁻¹ s⁻¹
FKBP12 [3]
  Kd: 12.6 nM
FKBP12 [4]
  IC50: 1.5 nM
FKBP12 [5]
  Kd: 13.2 nM
  koff: 0.000594 s⁻¹
FKBP12 [5]; read-out: Ka
  kon: 45000 M⁻¹ s⁻¹
